According to patent US6083977A, “Trienoic retinoid compounds and methods” (Ligand Pharmaceuticals Incorporated, priority 1995, dated 2000):
Values belong to the molecule of their own block, whether it stands above or below them.

Experiments:
[1] = system: ornithine decarboxylase (ODC); test: Ornithine decarboxylase assay: inhibition of TPA induction of ODC; assay type: cell-based
[2] = system: RARs or RXRs; test: Co-transfection assay, RAR and RXR receptors; assay type: cell-based; conditions: for potency profile compared to 9-cis retinoic acid (in words): relative to 9-cis
Experimental: (§1) Utilizing the "cis-trans" or "co-transfection" assay described by Evans et al., Science, 240:889-95 (May 13, 1988), the disclosure of which is herein incorporated by reference, the retinoid compounds of the present invention were tested and found to have strong, specific activity as either selective RAR agonists, selective RXR agonists, or as pan-agonist activators of both RAR and RXR receptors. This assay is described in further detail in U.S. Pat. Nos. 4,981,784 and 5,071,773, the disclosures of which are incorporated herein by reference.
(§2) The co-transfection assay provides a method for identifying functional agonists which mimic, or antagonists which inhibit, the effect of native hormones, and quantifying their activity for responsive IR proteins. In this regard, the co-transfection assay mimics an in vivo system in the laboratory. Importantly, activity in the co-transfection assay correlates very well with known in vivo activity, such that the co-transfection assay functions as a qualitative and quantitative predictor of a tested compounds in vivo pharmacology. See, e.g., T. Berger et al. 41 J. Steroid Biochem. Molec. Biol. 773 (1992), the disclosure of which is herein incorporated by reference.
(§3) In the co-transfection assay, a cloned cDNA for an IR (e.g., human RARα, RARβ, RXRγ) under the control of a constitutive promoter (e.g., the SV 40 promoter) is introduced by transfection (a procedure to induce cells to take up foreign genes) into a background cell substantially devoid of endogenous IRs. This introduced gene directs the recipient cells to make the IR protein of interest. A second gene is also introduced (co-transfected) into the same cells in conjunction with the IR gene. This second gene, comprising the cDNA for a reporter protein, such as firefly luciferase (LUC), is controlled by an appropriate hormone responsive promoter containing a hormone response element (HRE). This reporter plasmid functions as a reporter for the transcription-modulating activity of the target IR. Thus, the reporter acts as a surrogate for the products (mRNA then protein) normally expressed by a gene under control of the target receptor and its native hormone.
(§4) The co-transfection assay can detect small molecule agonists or antagonists of target IRs. Exposing the transfected cells to an agonist ligand compound increases reporter activity in the transfected cells. This activity can be conveniently measured, e.g., by increasing luciferase production, which reflects compound-dependent, IR-mediated increases in reporter transcription. […] . Increasing concentrations of a suspected antagonist will decrease the reporter signal (e.g., luciferase production). The co-transfection assay is therefore useful to detect both agonists and antagonists of specific IRs. Furthermore, it determines not only whether a compound interacts with a particular IR, but whether this interaction mimics (agonizes) or blocks (antagonizes) the effects of the native regulatory molecules on target gene expression, as well as the specificity and strength of this interaction.
To determine RAR and/or RXR agonist activity of the compounds of the present invention, the CV-1 cells were transiently transfected by calcium phosphate coprecipitation according to the procedure of Berger et al., 41 J. Steroid Biochem. Mol. Biol., 733 (1992) with the following receptor expressing plasmids: pRShRARα: Giguere et al., 330 Nature, 624 (1987); pRShRARβ and pRShRARγ, Ishikawa et al., 4 Mol. Endocrin., 837 (1990); pRShRXRα, Mangelsdorf et al., 345 Nature, 224 (1990); and pRSmRXRβ and pRSmRXRγ, Mangelsdorf et al., 6 Genes & Devel., 329 (1992), the disclosures of which are herein incorporated by reference.

[3] = system: RARs; test: Co-transfection assay, RAR subfamily; assay type: cell-based, human
Experimental: as §1, §2, §3
as §4, with “interaction. […]” for “interaction.”

[4] = system: RAR and RXR receptors; test: Binding to the RAR and RXR receptors; conditions: relative to ATRA (RAR) and 9-cis (RXR)

activity on any of the RARs or RXRs (in words) [2]: no, or virtually no, activity
Compound: COc1cc(C)c(/C=C/C=C/C=C(\C)C(=O)O)c(C)c1C [C, (2E,4E,6E)-2-methyl-7-(2,3,6-trimethyl-4-methoxyphenyl)hepta-2,4,6-trienoic acid]

activity on any of the RARs or RXRs (in words) [2]: no, or virtually no, activity
Compound: COc1ccc(/C(C)=C/C=C/C(C)=C/C(=O)O)cc1 [B, (2E, 4E,6E)-3-methyl-7-(4-methoxyphenyl)octa-2,4,6-trienoic acid]

activity on any of the RARs or RXRs (in words) [2]: no, or virtually no, activity
Compound: COC(/C=C/C=C(\C)c1ccc(C(C)(C)C)cc1)=C/C(=O)O [D, (2E,4E,6E)-3-methoxy-7-(4-t-butylphenyl)octa-2,4,6-trienoic acid]

potency profile compared to 9-cis retinoic acid (in words) [2]: superior potency profile
Compound: C/C(=C/C=C/C(C)=C/C(=O)O)c1cc(C(C)C)cc(C(C)C)c1 [Compound 43, (2E, 4E, 6Z)-7-(3,5-Di-isopropylphenyl)-3-methylocta-2,4,6-trienoic acid]

retinoid activity of ester analogs (in words) [1]: exhibit retinoid activity
Compound: CCOC(=O)/C=C(C)/C=C/C=C(\C)c1cc(C(C)(C)C)cc(C(C)(C)C)c1 [Compound 7, Ethyl (2E, 4E, 6E)-7-(315-di-t-butylphenyl)-3-methylocta-2,4,6-trienoate]

activity on any of the RARs or RXRs (in words) [2]: no, or virtually no, activity
Compound: COc1ccc(/C(C)=C/C=C/C(C)=C/C(=O)O)cc1OC [A, (2E,4E,6E)-3-methyl-7-(3,4-dimethoxyphenyl)octa-2,4,6-trienoic acid]

potency profile compared to 9-cis retinoic acid (in words) [2]: superior potency profile
binding compared to ATRA and 9-cis (in words) [4]: equal or superior binding
Compound: C/C(=C/C=C/C(C)=C/C(=O)O)c1cc(C(C)(C)C)cc(C(C)(C)C)c1 [Compound 10, (2E, 4E, 6Z)-7-(3,5-Di-t-butylphenyl)-3-methylocta-2,4,6-trienoic acid]

Continued, molecule first:

Compound: CCOC(=O)/C=C(C)/C=C/C=C(/C)c1cc(C(C)(C)C)cc(C(C)(C)C)c1 [Compound 8, Ethyl (2E, 4E, 6Z)-7-(3,5-di-t-butylphenyl)-3-methylocta-2,4,6-trienoate]
retinoid activity of ester analogs (in words) [1]: exhibit retinoid activity

Compound: CC(/C=C/C=C1\CCOc2c1cc(C(C)(C)C)cc2C(C)(C)C)=C\C(=O)O [Compound 39, (2E,4E,6E)-6-(6,8,-Di-t-butylchroman-4-ylidene)-3-methylhexa-2,4,6-trienoic acid]
RAR activity (in words) [3]: extremely potent RAR active compounds

Compound: CC(/C=C/C=C(\C)c1cc(C(F)(F)F)cc(C(F)(F)F)c1)=C\C(=O)O [Compound 41, (2E, 4E, 6E)-7-(3,5-Di-trifluoromethylphenyl)-3-methylocta-2,4,6-trienoic acid]
RAR activity (in words) [3]: extremely potent RAR active compounds

Compound: COc1c(C(C)(C)C)cc(/C(C)=C/C=C/C(C)=C/C(=O)O)cc1C(C)(C)C [Compound 47, (2E, 4E, 6E) -3-Methyl-7-(3,5-di-t-butyl-4-methoxyphenyl)octa-2,4,6-trienoic acid]
RAR activity (in words) [3]: extremely potent RAR active compounds
RAR isoform selectivity (in words) [3]: selectivity on RARβ and RARγ
